Experimental data published in US10940188B2, “Compounds and methods for treatment and prevention of Flavivirus infection” (priority 2016, dated 2021).

How the values were obtained:
[1] = test system: forebrain-specific hNPCs infected by FSS13025; assay: Immunostaining of ZIKV-infected forebrain-specific hNPCs (monolayer) for cleaved caspase-3 and ZIKVE; assay type: cell-based, human
Source text: (§1) FIGS. 1A-1, 1A-2, 1A-3, 1B-1, 1B-2, 1C-1, and 1C-2. Emricasan suppresses cell death of ZIKV-infected human astrocytes and hNPCs in 2D monolayer cultures and 3D brain organoids. Emricasan (FIG. 1A-1) inhibits caspase-3 activity and improves cell viability in human astrocytes infected with three different strains of ZIKV in a concentration dependent manner. Value represent mean±s.d. (n=3). The curves (FIGS. 1A-2 and 1A-3) represent best fit. (FIG. 1B) Sample images of immunostaining (FIG. 1B-1) of forebrain-specific hNPCs for ZIKV envelop protein (ZIKVE; green) and cleaved-caspase 3 (Cas3; red) and DAPI (gray) 72 hours after ZIKV FSS-13025 infection (MOI=0.04-0.08; Scale bar: 20 μm), and quantification (FIG. 1B-2). Values represent mean±s.e.m. (n=3; **P<0.01; Student's t-test). Sample images (FIG. 1C-1) of immunostaining of day 28 human forebrain-specific organoids for ZIKVE (green) and Cas3 (red) and DAPI (gray) 10 days after ZIKV FSS-13025 infection (Scale bar: 100 μm), and quantification (FIG. 1C-2). Values represent mean±s.e.m. (n=6; ***P<0.001; Student's t-test).
Cells were fixed with 4% paraformaldehyde (Sigma) for 15 min at room temperature. Samples were permeabilized and blocked with 0.25% Triton X-100 (Sigma) and 10% donkey or goat serum in PBS for 20 min as previously described (Chiang et al., 2011; [41]; Yoon et al., 2014). […]

[2] = test system: human forebrain-specific organoids infected by FSS13025; assay: Immunostaining of ZIKV-infected forebrain-specific organoids for cleaved caspase-3 and ZIKVE; assay type: cell-based; conditions: FSS13025 infection, 10 days
Source text: as §1
Forebrain-specific organoids were generated from the C2-1 human iPSC line as previously described. Briefly, human iPSC colonies were detached 7 days after passage with Collagenase Type IV, washed with fresh stem cell medium and cultured in a 15 ml conical tube. […]

C[C@H](NC(=O)C(=O)Nc1ccccc1C(C)(C)C)C(=O)N[C@@H](CC(=O)O)C(=O)COc1c(F)c(F)cc(F)c1F [Emricasan]
number of cleaved caspase-3-expressing hNPCs, monolayer ([1]; FSS13025 infection, 72 hours): reduced the number of active (cleaved) caspase-3-expressing forebrain-specific hNPCs
suppression of ZIKV replication (ZIKV antigen in 2D and 3D cultures) ([1]; after Emricasan treatment): does not suppress ZIKV replication
number of cleaved caspase-3-expressing hNPCs, 3D organoid cultures [2]: reduced the number of active (cleaved) caspase-3-expressing forebrain-specific hNPCs
